This note sets out measurements from article PMC11799997 (ACS Omega, 2025).

Data set [1] in a line: Urinary radiometabolite assay in normal mice. In kind it is in vivo, mouse. Particulars: for urinary radioactivity with tR consistent with [64Cu]Cu-cyclam-G: pilot, 13.3 MBq/12.4 nmol i.v., RP-HPLC.
Data set [2] deals with renal brush border membrane vesicles (RBBMVs). As to the kind of experiment: Enzyme-mediated cleavage assay with RBBMVs. In kind it is in vitro ADME, rat. Particulars: 10 mg/mL RBBMVs, 37 °C, TLC; for release of [64Cu]Cu-cyclam-G upon incubation with RBBMVs: 10 min–24 h; for release of radiometabolite-X (% of the radioactivity): 24 h.
Data set [3] in a line: Whole-body dynamic PET in normal mice. Particulars: for RRL relative to [64Cu]Cu-cyclam-RaftRGD / renal radioactivity level (RRL): 57.5 min p.i.; for renal radioactivity level (RRL) / radioactivity in the bladder: 2.92–4.26 MBq/0.3 nmol i.v.; for radioactivity in the bladder: by 1 h p.i.
Data set [4] can be described thus: Ex vivo biodistribution study in normal mice. The arrangement: species or system mouse. Particulars: 3 to 24 h p.i.
Another data set deals with U87MG tumor-bearing mice. As to the kind of experiment: PET imaging of U87MG tumor-bearing mice. Particulars: for rate of reduction in renal radioactivity level (PET): from 1 to 24 h p.i. It is filed as in vivo, mouse.
In data set [5] the test system is renal brush border enzymes (RBBMVs). As to the kind of experiment: Enzyme inhibition study of RBBMV-mediated cleavage of the GFK linkage. In kind it is biochemical, rat. Particulars: 1 mM inhibitor; for inhibition of release of [64Cu]Cu-cyclam-G from [64Cu]Cu-cyclam-GFK(Bz) / inhibition of release of radiometabolite-X from [64Cu]Cu-cyclam-GFK(Bz): RBBMVs 10 mg/mL, 37 °C, 5 or 24 h, TLC; for inhibition of release of [64Cu]Cu-cyclam-G from [64Cu]Cu-cyclam-GFK(Bz) (pilot): RBBMVs 3 mg/mL, 37 °C overnight, RP-HPLC.

A short description of data set [6]: Pilot dynamic PET imaging of [64Cu]Cu-cyclam-G in normal mice.

For `O=C(CN1CCCNCCNCCCNCC1)NCC(=O)N[C@@H](Cc1ccccc1)C(=O)N[C@@H](CCCCNC(=O)c1ccccc1)C(=O)O` [[^64Cu]Cu-cyclam-GFK(Bz), [^64Cu]Cu-cyclam-GFK(benzoyl [Bz])-OH, metal not drawn], the “urinary radioactivity with tR consistent with [64Cu]Cu-cyclam-G” value in data set [1] (mouse urine 10 min p.i.) is reported as 5.9%. Also, the “urinary radioactivity with tR consistent with [64Cu]Cu-cyclam-G” value in data set [1] (mouse urine 2 h p.i.) stood at 13.8%. In addition, in data set [1] (urine 0–6 h p.i., TLC), the “urine radioactivity fraction as [64Cu]Cu-cyclam-G” value came out at 27.2 ± 2.5% and the “urine radioactivity fraction as intact compound” value came out at 67.6 ± 3.4%. For the same compound, in data set [2], the “release of [64Cu]Cu-cyclam-G upon incubation with RBBMVs” value (“release … with RBBMVs” below) is reported as “released the expected fragment” and the “release of radiometabolite-X (% of the radioactivity)” value (shortened to “release … (% of the radioactivity)”) turned out to be 43.7%.
Take `C[C@@H]1NC(=O)[C@H](CCCCNC(=O)CO/N=C/C(=O)NCCCC[C@@H]2NC(=O)[C@@H](Cc3ccccc3)NC(=O)[C@H](CC(=O)O)NC(=O)CNC(=O)[C@H](CCCNC(=N)N)NC2=O)NC(=O)CNC(=O)[C@@H]2CCCN2C(=O)[C@H](CCCCNC(=O)CO/N=C/C(=O)NCCCC[C@@H]2NC(=O)[C@@H](Cc3ccccc3)NC(=O)[C@H](CC(=O)O)NC(=O)CNC(=O)[C@H](CCCNC(=N)N)NC2=O)NC(=O)[C@H](CCCCNC(=O)CCNC(=O)CCNC(=O)CCNC(=O)[C@H](CCCCN)NC(=O)[C@H](Cc2ccccc2)NC(=O)CNC(=O)CN2CCCNCCNCCCNCC2)NC(=O)[C@H](CCCCNC(=O)CO/N=C/C(=O)NCCCC[C@@H]2NC(=O)[C@@H](Cc3ccccc3)NC(=O)[C@H](CC(=O)O)NC(=O)CNC(=O)[C@H](CCCNC(=N)N)NC2=O)NC(=O)CNC(=O)[C@@H]2CCCN2C(=O)[C@H](CCCCNC(=O)CO/N=C/C(=O)NCCCC[C@@H]2NC(=O)[C@@H](Cc3ccccc3)NC(=O)[C@H](CC(=O)O)NC(=O)CNC(=O)[C@H](CCCNC(=N)N)NC2=O)NC1=O` [[^64Cu]Cu-cyclam-GFK(βA)3-RaftRGD, metal not drawn]: the “RRL relative to [64Cu]Cu-cyclam-RaftRGD” value in data set [3] stood at 2.57 fold. Also, in data set [4], the “reduction of kidney radioactivity level” value is given as 74.4% and the “reduction of liver radioactivity level” value is listed as 34%. Besides, in the data set on U87MG tumor-bearing mice (U87MG tumor, 1–24 h p.i.), the “tumor uptake (PET)” value was “significantly higher than those of the GFK compound”. Moreover, the “rate of reduction in renal radioactivity level (PET)” value (from here on “rate of reduction”) with U87MG tumor-bearing mice stood at 75.6 ± 1.8%. In addition, in data set [1] (urine 0–6 h p.i., TLC), the “urine radioactivity fraction as intact compound” value was “much lower and poorly defined for quantification”; the “urine radioactivity fraction as radiometabolite-X ([64Cu]Cu-cyclam-GF)” value is 69.1 ± 4.5%. Moreover, in data set [2], the “release … with RBBMVs” value is given as “failed to release” and the “release … (% of the radioactivity)” value worked out at 22.9%.
As to `C[C@@H]1NC(=O)[C@H](CCCCNC(=O)CO/N=C/C(=O)NCCCC[C@@H]2NC(=O)[C@@H](Cc3ccccc3)NC(=O)[C@H](CC(=O)O)NC(=O)CNC(=O)[C@H](CCCNC(=N)N)NC2=O)NC(=O)CNC(=O)[C@@H]2CCCN2C(=O)[C@H](CCCCNC(=O)CO/N=C/C(=O)NCCCC[C@@H]2NC(=O)[C@@H](Cc3ccccc3)NC(=O)[C@H](CC(=O)O)NC(=O)CNC(=O)[C@H](CCCNC(=N)N)NC2=O)NC(=O)[C@H](CCCCNC(=O)[C@H](CCCCN)NC(=O)[C@H](Cc2ccccc2)NC(=O)CNC(=O)CN2CCCNCCNCCCNCC2)NC(=O)[C@H](CCCCNC(=O)CO/N=C/C(=O)NCCCC[C@@H]2NC(=O)[C@@H](Cc3ccccc3)NC(=O)[C@H](CC(=O)O)NC(=O)CNC(=O)[C@H](CCCNC(=N)N)NC2=O)NC(=O)CNC(=O)[C@@H]2CCCN2C(=O)[C@H](CCCCNC(=O)CO/N=C/C(=O)NCCCC[C@@H]2NC(=O)[C@@H](Cc3ccccc3)NC(=O)[C@H](CC(=O)O)NC(=O)CNC(=O)[C@H](CCCNC(=N)N)NC2=O)NC1=O` [[^64Cu]Cu-cyclam-GFK-RaftRGD, metal not drawn], the “RRL relative to [64Cu]Cu-cyclam-RaftRGD” value in data set [3] was 2.98 fold. Moreover, in data set [4], the “reduction of kidney radioactivity level” value is listed as 61.1% and the “reduction of liver radioactivity level” value worked out at 28.0%. In addition, the “rate of reduction” value in the data set with U87MG tumor-bearing mice is 73.0 ± 2.3%. For the same compound, in data set [1] (urine 0–6 h p.i., TLC), the “urine radioactivity fraction as intact compound” value amounted to 27.7 ± 2.4% and the “urine radioactivity fraction as radiometabolite-X ([64Cu]Cu-cyclam-GF)” value was 56.9 ± 2.0%. For the same compound, in data set [2], the “release … with RBBMVs” value is reported as “failed to release” and the “release … (% of the radioactivity)” value stood at 18.2%.
For the compound `C[C@@H]1NC(=O)[C@H](CCCCNC(=O)CO/N=C/C(=O)NCCCC[C@@H]2NC(=O)[C@@H](Cc3ccccc3)NC(=O)[C@H](CC(=O)O)NC(=O)CNC(=O)[C@H](CCCNC(=N)N)NC2=O)NC(=O)CNC(=O)[C@@H]2CCCN2C(=O)[C@H](CCCCNC(=O)CO/N=C/C(=O)NCCCC[C@@H]2NC(=O)[C@@H](Cc3ccccc3)NC(=O)[C@H](CC(=O)O)NC(=O)CNC(=O)[C@H](CCCNC(=N)N)NC2=O)NC(=O)[C@H](CCCCNC(=O)CN2CCCNCCNCCCNCC2)NC(=O)[C@H](CCCCNC(=O)CO/N=C/C(=O)NCCCC[C@@H]2NC(=O)[C@@H](Cc3ccccc3)NC(=O)[C@H](CC(=O)O)NC(=O)CNC(=O)[C@H](CCCNC(=N)N)NC2=O)NC(=O)CNC(=O)[C@@H]2CCCN2C(=O)[C@H](CCCCNC(=O)CO/N=C/C(=O)NCCCC[C@@H]2NC(=O)[C@@H](Cc3ccccc3)NC(=O)[C@H](CC(=O)O)NC(=O)CNC(=O)[C@H](CCCNC(=N)N)NC2=O)NC1=O` [[^64Cu]Cu-cyclam-RaftRGD, [^64Cu]Cu-cyclam-RAFT-c(-RGDfK-)4, metal not drawn], in data set [4], the “reduction of kidney radioactivity level” value worked out at 22.8% and the “reduction of liver radioactivity level” value is given as 27.0%. Besides, the “rate of reduction” value with U87MG tumor-bearing mice is reported as 43.0 ± 4.5%.
Turning to `C[C@H](CS)C(=O)N1CCC[C@H]1C(=O)O` [captopril], in data set [5], the “inhibition of release of [64Cu]Cu-cyclam-G from [64Cu]Cu-cyclam-GFK(Bz)” value is recorded as “partially inhibited” and the “inhibition of release of radiometabolite-X from [64Cu]Cu-cyclam-GFK(Bz)” value is “partially inhibited”.
With `CC1(C)C[C@@H]1C(=O)N/C(=C\CCCCSC[C@H](N)C(=O)O)C(=O)O` [cilastatin], in data set [5], the “inhibition of release of [64Cu]Cu-cyclam-G from [64Cu]Cu-cyclam-GFK(Bz) (pilot)” value is reported as “remained unaffected”, the “inhibition of release of [64Cu]Cu-cyclam-G from [64Cu]Cu-cyclam-GFK(Bz)” value is on record as “not inhibited” and the “inhibition of release of radiometabolite-X from [64Cu]Cu-cyclam-GFK(Bz)” value is “not inhibited”.
Take `NC(N)=NCCSCC(CS)C(=O)O` (stereo not drawn) [mergetpa]: in data set [5], the “inhibition of release of [64Cu]Cu-cyclam-G from [64Cu]Cu-cyclam-GFK(Bz)” value is given as “not inhibited” and the “inhibition of release of radiometabolite-X from [64Cu]Cu-cyclam-GFK(Bz)” value is “partially inhibited”.
As to `CC(C)C[C@H](NP(=O)(O)O[C@@H]1O[C@@H](C)[C@H](O)[C@@H](O)[C@H]1O)C(=O)N[C@@H](Cc1c[nH]c2ccccc12)C(=O)O` [phosphoramidon], in data set [5], the “inhibition of release of [64Cu]Cu-cyclam-G from [64Cu]Cu-cyclam-GFK(Bz) (pilot)” value is given as “almost completely inhibited”, the “inhibition of release of [64Cu]Cu-cyclam-G from [64Cu]Cu-cyclam-GFK(Bz)” value is “nearly completely inhibited” and the “inhibition of release of radiometabolite-X from [64Cu]Cu-cyclam-GFK(Bz)” value was “barely inhibited”.
For the compound [^64Cu]Cu-cyclam-Gly-OH, the “reduction of renal uptake from peak” value in data set [6] (1.5 to 57.5 min p.i.) was 96.7%. Besides, the renal uptake peak in data set [6] (1.5 min p.i., ~7.4 MBq/2 nmol i.v.) is 20.3 ± 2.9 %ID/g. In data set [6] (57.5 min p.i., ~7.4 MBq/2 nmol i.v.), this compound yielded a renal uptake of 0.68 ± 0.02 %ID/g. For the same compound, the “ID excreted in urine” value in data set [6] (within 60 min after injection) is “more than 70 % of ID”. Besides, in data set [3], the “renal radioactivity level (RRL)” value is on record as 1.14 ± 0.15 %ID/g and the “radioactivity in the bladder” value is on record as above 70 %ID. In addition, in data set [1] (normal mice, 7.4 MBq i.v., group values), the “0–6 h urinary radioactivity levels” value lay in the range of 34.7 to 50.9 %ID.
In the case of “[^64Cu]Cu-cyclam-Gly-Phe-OH [[^64Cu]Cu-cyclam-GF]”, in data set [3], the “renal radioactivity level (RRL)” value is recorded as 1.50 ± 0.81 %ID/g and the “radioactivity in the bladder” value is on record as above 70 %ID.
